{"source": "patent US20240327364A1", "about": "“THERAPEUTIC TARGETING OF GPR68 TO INDUCE FERROPTOSIS” (University Of Maryland, Baltimore, priority 2023, published 2024)", "key": {"[1]": {"target": "CDK9 (Homo sapiens, UniProt P50750)", "sequence (P50750 whole entry)": "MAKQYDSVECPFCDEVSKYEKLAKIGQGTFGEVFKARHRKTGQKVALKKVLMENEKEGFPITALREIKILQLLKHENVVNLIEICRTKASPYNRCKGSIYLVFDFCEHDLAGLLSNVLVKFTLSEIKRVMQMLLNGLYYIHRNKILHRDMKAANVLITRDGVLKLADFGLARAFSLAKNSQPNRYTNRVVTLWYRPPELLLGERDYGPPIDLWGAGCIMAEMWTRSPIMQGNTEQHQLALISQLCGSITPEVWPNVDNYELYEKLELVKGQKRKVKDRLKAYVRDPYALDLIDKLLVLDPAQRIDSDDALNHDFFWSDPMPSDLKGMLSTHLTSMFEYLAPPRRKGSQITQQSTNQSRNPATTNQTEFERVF", "assay": "KinomeScan", "assay_type": "binding", "settings": "read-out: % Control"}, "[2]": {"target": "T1, PIK3CA(E542K) (Homo sapiens, UniProt P42336, E542K)", "T1 construct": "purchased DiscoveRx (Fremont, CA)", "assay": "KinomeScan", "assay_type": "binding", "settings": "read-out: % Control"}, "[3]": {"target": "T2, H2 (Homo sapiens, UniProt P25021)", "T2 construct": "host or cells: Chem-1 cells with promiscuous Gα15", "assay": "GPCR Profiler", "assay_type": "cell-based"}, "[4]": {"target": "T3, YES (Homo sapiens, UniProt P07947)", "T3 construct": "purchased DiscoveRx", "assay": "KinomeScan", "assay_type": "binding", "settings": "read-out: % Control"}, "[5]": {"target": "T4, EPHB2 (Homo sapiens, UniProt P29323)", "T4 construct": "purchased DiscoveRx (Fremont, CA)", "T4 sequence (P29323 19-1055)": "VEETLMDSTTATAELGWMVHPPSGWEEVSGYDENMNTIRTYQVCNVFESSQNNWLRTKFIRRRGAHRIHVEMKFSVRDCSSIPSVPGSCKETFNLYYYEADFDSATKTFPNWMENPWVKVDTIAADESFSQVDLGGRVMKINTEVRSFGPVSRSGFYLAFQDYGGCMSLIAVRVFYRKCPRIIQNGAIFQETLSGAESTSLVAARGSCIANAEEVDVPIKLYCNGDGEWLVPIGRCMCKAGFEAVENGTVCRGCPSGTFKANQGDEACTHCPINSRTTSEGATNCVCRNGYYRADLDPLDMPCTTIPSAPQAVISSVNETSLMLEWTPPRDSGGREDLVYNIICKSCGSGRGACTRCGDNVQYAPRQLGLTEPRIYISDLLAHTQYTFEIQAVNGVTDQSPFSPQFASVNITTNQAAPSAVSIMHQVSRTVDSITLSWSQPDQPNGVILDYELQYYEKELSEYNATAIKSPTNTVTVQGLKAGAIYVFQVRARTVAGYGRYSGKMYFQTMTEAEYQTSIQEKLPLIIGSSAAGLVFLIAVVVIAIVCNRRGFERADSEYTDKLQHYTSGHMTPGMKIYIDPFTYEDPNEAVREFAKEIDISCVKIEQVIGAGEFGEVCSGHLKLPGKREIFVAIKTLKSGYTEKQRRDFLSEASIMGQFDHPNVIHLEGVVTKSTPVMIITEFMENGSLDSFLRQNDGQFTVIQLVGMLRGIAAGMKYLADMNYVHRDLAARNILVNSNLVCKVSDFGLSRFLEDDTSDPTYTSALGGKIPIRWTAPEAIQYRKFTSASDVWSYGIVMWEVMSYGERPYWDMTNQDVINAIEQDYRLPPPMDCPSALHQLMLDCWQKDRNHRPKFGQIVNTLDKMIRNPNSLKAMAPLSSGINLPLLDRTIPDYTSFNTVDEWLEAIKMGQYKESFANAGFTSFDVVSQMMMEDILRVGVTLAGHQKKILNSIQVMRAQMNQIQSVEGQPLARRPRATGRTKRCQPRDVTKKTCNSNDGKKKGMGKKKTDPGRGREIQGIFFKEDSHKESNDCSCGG", "assay": "KinomeScan", "assay_type": "binding", "settings": "read-out: % Control"}, "[6]": {"target": "T5, GAL2 (Homo sapiens, UniProt O43603)", "T5 construct": "host or cells: Chem-1 cells expressing Gα15", "assay": "GPCR Profiler", "assay_type": "cell-based"}, "[7]": {"target": "T6, MAP3K4 (Homo sapiens, UniProt Q9Y6R4)", "T6 construct": "purchased DiscoveRx (Fremont, CA)", "assay": "KinomeScan", "assay_type": "binding", "settings": "read-out: % Control"}, "[8]": {"target": "T7, CAMK1G (Homo sapiens, UniProt Q96NX5)", "T7 construct": "purchased DiscoveRx (KinomeScan service)", "assay": "KinomeScan", "assay_type": "binding", "settings": "read-out: % Control"}, "[9]": {"target": "T8, ANKK1 (Homo sapiens, UniProt Q8NFD2)", "T8 construct": "purchased DiscoveRx (Fremont, CA)", "assay": "KinomeScan", "assay_type": "binding", "settings": "read-out: % Control"}, "[10]": {"target": "T9, ERK1 (Homo sapiens, UniProt P27361)", "T9 construct": "purchased DiscoveRx (Fremont, CA)", "assay": "KinomeScan", "assay_type": "binding", "settings": "read-out: % Control"}, "[11]": {"target": "T10, AURKB (Homo sapiens, UniProt Q96GD4)", "T10 construct": "purchased DiscoveRx (Fremont, CA)", "assay": "KinomeScan", "assay_type": "binding", "settings": "read-out: % Control"}, "[12]": {"target": "T11, GPR109A (Homo sapiens, UniProt Q8TDS4)", "T11 construct": "host or cells: Chem-1 cells expressing Gα15", "assay": "GPCR Profiler", "assay_type": "cell-based"}, "[13]": {"target": "T12, ABL1(Y253F)-phosphorylated (Homo sapiens, UniProt P00519, Y253F)", "T12 construct": "purchased DiscoveRx", "assay": "KinomeScan", "assay_type": "binding", "settings": "read-out: % Control"}, "[14]": {"target": "T13, CASK (Homo sapiens, UniProt O14936)", "T13 construct": "purchased DiscoveRx (KinomeScan service)", "T13 sequence (O14936 whole entry)": "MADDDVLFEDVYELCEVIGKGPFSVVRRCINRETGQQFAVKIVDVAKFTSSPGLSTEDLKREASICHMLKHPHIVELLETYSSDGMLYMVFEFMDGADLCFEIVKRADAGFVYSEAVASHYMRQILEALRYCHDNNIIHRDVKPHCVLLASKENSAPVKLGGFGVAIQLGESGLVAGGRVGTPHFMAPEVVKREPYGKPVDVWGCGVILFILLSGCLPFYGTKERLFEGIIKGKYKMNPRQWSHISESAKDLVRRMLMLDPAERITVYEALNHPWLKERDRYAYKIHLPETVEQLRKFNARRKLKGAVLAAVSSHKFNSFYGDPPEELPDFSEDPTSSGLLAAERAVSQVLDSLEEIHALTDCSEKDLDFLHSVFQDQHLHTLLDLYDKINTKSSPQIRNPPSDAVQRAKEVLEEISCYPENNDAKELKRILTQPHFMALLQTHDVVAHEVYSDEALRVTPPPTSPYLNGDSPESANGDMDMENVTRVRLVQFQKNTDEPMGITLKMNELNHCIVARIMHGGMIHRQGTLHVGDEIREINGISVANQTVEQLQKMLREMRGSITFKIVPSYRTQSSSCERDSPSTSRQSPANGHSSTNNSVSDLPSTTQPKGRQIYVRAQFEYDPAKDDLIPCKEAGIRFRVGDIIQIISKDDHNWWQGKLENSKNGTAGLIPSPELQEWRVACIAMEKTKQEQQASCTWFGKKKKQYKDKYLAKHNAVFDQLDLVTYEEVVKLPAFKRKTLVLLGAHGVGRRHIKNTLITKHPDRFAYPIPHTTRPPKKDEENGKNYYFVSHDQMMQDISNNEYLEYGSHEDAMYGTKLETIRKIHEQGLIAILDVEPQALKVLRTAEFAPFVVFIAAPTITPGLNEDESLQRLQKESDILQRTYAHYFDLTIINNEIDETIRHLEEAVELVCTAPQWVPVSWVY", "assay": "KinomeScan", "assay_type": "binding", "settings": "read-out: % Control"}, "[15]": {"target": "T14, PAK7 (Homo sapiens, UniProt Q9P286)", "T14 construct": "purchased DiscoveRx", "T14 sequence (Q9P286 whole entry)": "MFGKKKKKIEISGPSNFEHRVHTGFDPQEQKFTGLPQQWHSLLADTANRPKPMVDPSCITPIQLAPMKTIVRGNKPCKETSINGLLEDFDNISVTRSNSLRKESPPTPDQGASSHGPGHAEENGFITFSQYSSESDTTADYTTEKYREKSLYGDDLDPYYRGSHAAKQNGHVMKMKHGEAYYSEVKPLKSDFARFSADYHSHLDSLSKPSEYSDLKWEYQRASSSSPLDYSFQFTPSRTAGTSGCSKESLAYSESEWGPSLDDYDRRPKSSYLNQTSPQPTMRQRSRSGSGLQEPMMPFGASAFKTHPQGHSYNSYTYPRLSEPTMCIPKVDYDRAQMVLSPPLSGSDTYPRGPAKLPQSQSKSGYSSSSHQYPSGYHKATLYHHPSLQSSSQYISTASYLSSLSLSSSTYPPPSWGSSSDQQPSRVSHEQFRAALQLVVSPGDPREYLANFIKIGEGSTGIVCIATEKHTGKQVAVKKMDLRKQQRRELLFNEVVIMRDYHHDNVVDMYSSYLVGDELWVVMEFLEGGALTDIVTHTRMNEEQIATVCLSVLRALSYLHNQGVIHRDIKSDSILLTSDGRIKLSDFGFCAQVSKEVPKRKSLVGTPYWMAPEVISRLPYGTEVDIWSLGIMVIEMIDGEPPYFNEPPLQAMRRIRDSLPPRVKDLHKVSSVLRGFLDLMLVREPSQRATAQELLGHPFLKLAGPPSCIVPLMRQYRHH", "assay": "KinomeScan", "assay_type": "binding", "settings": "read-out: % Control"}, "[16]": {"target": "T15, RSK1(Kin.Dom.1-N-terminal) (Homo sapiens, UniProt Q15418)", "T15 construct": "RSK1(Kin.Dom.1-N-terminal); purchased DiscoveRx (Fremont, CA)", "assay": "KinomeScan", "assay_type": "binding", "settings": "read-out: % Control"}, "[17]": {"target": "T16, MAP3K1 (Homo sapiens, UniProt Q13233)", "T16 construct": "purchased DiscoveRx", "assay": "KinomeScan", "assay_type": "binding", "settings": "read-out: % Control"}, "[18]": {"target": "T17, JAK2(JH1domain-catalytic) (Homo sapiens, UniProt O60674)", "T17 construct": "JAK2(JH1domain-catalytic); purchased DiscoveRx (Fremont, CA)", "T17 sequence (O60674 849-1124 limits assumed)": "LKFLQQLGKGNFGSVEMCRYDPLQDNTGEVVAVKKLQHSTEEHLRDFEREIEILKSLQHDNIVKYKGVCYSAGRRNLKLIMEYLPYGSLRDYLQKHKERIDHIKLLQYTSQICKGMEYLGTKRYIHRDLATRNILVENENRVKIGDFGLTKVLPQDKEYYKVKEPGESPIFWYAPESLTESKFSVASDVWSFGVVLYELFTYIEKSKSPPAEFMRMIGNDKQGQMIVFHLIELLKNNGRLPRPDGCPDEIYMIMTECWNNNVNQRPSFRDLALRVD", "assay": "KinomeScan", "assay_type": "binding", "settings": "read-out: % Control"}, "[19]": {"target": "T18, OPRD1 (Homo sapiens, UniProt P41143)", "T18 construct": "host or cells: Chem-1 cells expressing Gα15", "T18 sequence (P41143 whole entry, species assumed)": "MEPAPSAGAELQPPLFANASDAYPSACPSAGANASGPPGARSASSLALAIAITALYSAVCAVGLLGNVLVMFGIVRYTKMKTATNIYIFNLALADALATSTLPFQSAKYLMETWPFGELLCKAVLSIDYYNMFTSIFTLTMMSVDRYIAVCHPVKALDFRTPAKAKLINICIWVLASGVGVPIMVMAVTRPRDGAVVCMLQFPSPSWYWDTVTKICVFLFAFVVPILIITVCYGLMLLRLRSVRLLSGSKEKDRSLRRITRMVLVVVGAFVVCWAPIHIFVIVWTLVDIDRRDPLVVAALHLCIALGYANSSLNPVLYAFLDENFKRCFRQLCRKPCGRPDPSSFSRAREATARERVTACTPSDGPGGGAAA", "assay": "GPCR Profiler", "assay_type": "cell-based"}, "[20]": {"target": "T19, P2Y11 (Homo sapiens, UniProt Q96G91)", "T19 construct": "host or cells: Chem-1 cells expressing Gα15", "T19 sequence (Q96G91 whole entry, species assumed)": "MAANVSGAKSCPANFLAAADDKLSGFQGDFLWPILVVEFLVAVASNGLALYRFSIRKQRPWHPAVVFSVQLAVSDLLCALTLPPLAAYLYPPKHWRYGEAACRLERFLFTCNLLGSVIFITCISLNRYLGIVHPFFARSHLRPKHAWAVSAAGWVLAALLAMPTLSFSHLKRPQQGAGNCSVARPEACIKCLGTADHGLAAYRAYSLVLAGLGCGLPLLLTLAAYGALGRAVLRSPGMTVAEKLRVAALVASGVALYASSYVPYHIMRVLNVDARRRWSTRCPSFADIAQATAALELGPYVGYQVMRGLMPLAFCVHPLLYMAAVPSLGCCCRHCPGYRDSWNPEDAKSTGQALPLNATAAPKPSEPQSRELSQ", "assay": "GPCR Profiler", "assay_type": "cell-based"}, "[21]": {"target": "T20, NEK7 (Homo sapiens, UniProt Q8TDX7)", "T20 construct": "purchased DiscoveRx", "T20 sequence (Q8TDX7 whole entry)": "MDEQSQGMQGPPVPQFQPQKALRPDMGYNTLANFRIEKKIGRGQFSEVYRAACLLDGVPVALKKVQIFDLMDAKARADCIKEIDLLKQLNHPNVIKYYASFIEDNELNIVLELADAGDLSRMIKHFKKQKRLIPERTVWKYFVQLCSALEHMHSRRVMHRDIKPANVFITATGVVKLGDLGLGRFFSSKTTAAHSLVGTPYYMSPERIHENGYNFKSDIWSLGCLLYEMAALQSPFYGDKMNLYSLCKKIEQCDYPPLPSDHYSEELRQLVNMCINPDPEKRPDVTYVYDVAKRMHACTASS", "assay": "KinomeScan", "assay_type": "binding", "settings": "read-out: % Control"}, "[22]": {"target": "T21, S6K1 (Homo sapiens, UniProt P23443)", "T21 construct": "purchased DiscoveRx (Fremont, CA)", "T21 sequence (P23443 whole entry)": "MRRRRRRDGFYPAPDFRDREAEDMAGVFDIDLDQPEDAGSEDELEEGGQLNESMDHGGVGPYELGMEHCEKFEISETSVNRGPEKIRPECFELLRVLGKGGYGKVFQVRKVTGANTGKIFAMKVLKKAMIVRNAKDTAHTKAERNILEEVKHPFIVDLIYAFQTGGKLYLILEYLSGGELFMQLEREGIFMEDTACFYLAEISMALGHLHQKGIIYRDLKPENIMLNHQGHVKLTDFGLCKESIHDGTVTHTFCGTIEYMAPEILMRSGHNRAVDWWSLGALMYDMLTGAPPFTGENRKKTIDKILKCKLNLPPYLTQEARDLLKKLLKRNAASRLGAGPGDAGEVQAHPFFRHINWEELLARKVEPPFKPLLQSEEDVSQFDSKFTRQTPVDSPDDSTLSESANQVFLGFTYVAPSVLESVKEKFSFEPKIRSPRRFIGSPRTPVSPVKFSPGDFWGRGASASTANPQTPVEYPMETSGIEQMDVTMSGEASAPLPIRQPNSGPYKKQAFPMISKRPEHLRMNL", "assay": "KinomeScan", "assay_type": "binding", "settings": "read-out: % Control"}, "[23]": {"tested_on": "Panc02", "assay": "Liperfluo lipid peroxidation", "assay_type": "cell-based, mouse", "settings": "OGM2 and ionizing radiation", "procedure": "(§1) Where appropriate, ANOVA, or student's T-test were conducted in PRISM. Chi squared T(X) was used for Liperfluo analysis. A value T(X)>4 implies that the two distributions are different with a p<0.01 (99% confidence). For drug interaction and therapeutic interaction, the coefficient of drug interaction (CDI) was calculated as follows: CDI=AB/(A×B). According to the impact of each group, AB is the value of combined treatment and A or B is the value of the single agent group to control group.\nRadiation, like OGM2, induces lipid peroxidation in addition to DNA damage. OGM was tested for its ability to sensitize lung and pancreatic cancers to radiation induced lipid peroxidation and ferroptosis. Cells were incubated at 37° C. in 5% CO2 in […] DMEM with DMSO, OGM2, or Erastin for 3 days. Then 2.5 μM Liperfluo in 3 ml fresh media was added and cells were incubated at 37° C. in 5% CO2 for 1 hour. Cells were then trypsinized, pelleted, and resuspended in cell sorting media (1% BSA and 1 mM EDTA in PBS pH 7.4). A BD LSR II was used to record Ten thousand events and the data processed with FlowJo v10.8. […] All treatments were highly significant with Chi-squared >4 indicating a p<0.01."}, "[24]": {"tested_on": "U138", "assay": "Liperfluo lipid peroxidation", "assay_type": "cell-based, human", "procedure": "(§2) Cells were plated on a 100 mm cell culture dish (CELLTREAT Scientific Products) in 10 mls of DMEM with high glucose, GlutaMAX, HEPES, Penicillin-Streptomycin (ThermoFisher™) and 10% FBS. Cells were incubated overnight at 37° C. in 5% CO2. Media were then replaced with […] fresh media with DMSO, OGM2, or Erastin (APExBIO Technology™) and the cells incubated for 3 days. On the third day, 3 mL fresh media with 2.5 μM Liperfluo™ (Dojindo Molecular Technologies™, Inc.) resuspended in DMSO was added and cells were incubated at 37° C. in 5% CO2 for 1 hour. Cells were subsequently trypsinized for 5 minutes, pelleted by centrifugation, and resuspended in cell sorting media (1% BSA and 1 mM EDTA in PBS pH 7.4). Ten thousand events were recorded on a BD LSR II and the data processed using the FlowJo™ software.\nas §1"}, "[25]": {"tested_on": "U87", "assay": "Liperfluo lipid peroxidation", "assay_type": "cell-based, human", "settings": "OGM2 and 2Gy ionizing radiation", "procedure": "as §2, §1"}}}
{"smiles": "CCc1ccc2c(c1)C1(NN=C(c3cccc4ccccc34)S1)C(=O)N2", "note": "(centres unmarked) [OGM1, 5-ethyl-5′-naphthalen-1-ylspiro[1H-indole-3,2′-3H-1,3,4-thiadiazole]-2-one]", "values": [{"measurement": "remaining binding at 10 µM", "setting": "[1]", "value": 98, "unit": "%"}, {"measurement": "remaining binding at 10 µM", "setting": "[2]", "value": 73, "unit": "%"}, {"measurement": "Antagonism", "setting": "[3]; 10 uM", "value": 1.3}, {"measurement": "Agonism", "setting": "[3]; 12.5 uM", "value": 0.1}, {"measurement": "remaining binding at 10 µM", "setting": "[4]", "value": 100, "unit": "%"}, {"measurement": "remaining binding at 10 µM", "setting": "[5]", "value": 100, "unit": "%"}, {"measurement": "Antagonism", "setting": "[6]; 10 uM", "value": 1}, {"measurement": "Agonism", "setting": "[6]; 12.5 uM", "value": 0.4}, {"measurement": "remaining binding at 10 µM", "setting": "[7]", "value": 100, "unit": "%"}, {"measurement": "remaining binding at 10 µM", "setting": "[8]", "value": 80, "unit": "%"}, {"measurement": "remaining binding at 10 µM", "setting": "[9]", "value": 100, "unit": "%"}, {"measurement": "remaining binding at 10 µM", "setting": "[10]", "value": 100, "unit": "%"}, {"measurement": "remaining binding at 10 µM", "setting": "[11]", "value": 86, "unit": "%"}, {"measurement": "Antagonism", "setting": "[12]; 10 uM", "value": 20.3}, {"measurement": "Agonism", "setting": "[12]; 12.5 uM", "value": "−0.2"}, {"measurement": "remaining binding at 10 µM", "setting": "[13]", "value": 80, "unit": "%"}, {"measurement": "remaining binding at 10 µM", "setting": "[14]", "value": 90, "unit": "%"}, {"measurement": "remaining binding at 10 µM", "setting": "[15]", "value": 62, "unit": "%"}, {"measurement": "remaining binding at 10 µM", "setting": "[16]", "value": 78, "unit": "%"}, {"measurement": "remaining binding at 10 µM", "setting": "[17]", "value": 72, "unit": "%"}, {"measurement": "remaining binding at 10 µM", "setting": "[18]", "value": 100, "unit": "%"}, {"measurement": "Antagonism", "setting": "[19]; 10 uM", "value": 7.4}, {"measurement": "Agonism", "setting": "[19]; 12.5 uM", "value": "−0.1"}, {"measurement": "Antagonism", "setting": "[20]; 10 uM", "value": "−8.2"}, {"measurement": "Agonism", "setting": "[20]; 12.5 uM", "value": "−0.1"}, {"measurement": "remaining binding at 10 µM", "setting": "[21]", "value": 100, "unit": "%"}, {"measurement": "remaining binding at 10 µM", "setting": "[22]", "value": 93, "unit": "%"}]}
{"smiles": "CCc1ccc2c(c1)C1(NN=C(c3ccccc3)S1)C(=O)N2", "note": "(centres unmarked) [OGM2]", "values": [{"measurement": "CDI, lipid peroxidation", "setting": "[23]", "value": "< 0.232"}, {"measurement": "Chi-squared T(X), lipid peroxidation", "setting": "[24]; 2 μM", "value": 273}, {"measurement": "Chi-squared T(X), lipid peroxidation", "setting": "[24]; 10 μM", "value": 592}, {"measurement": "CDI, lipid peroxidation", "setting": "[24]; OGM2 and 2Gy ionizing radiation", "value": "< 0.006"}, {"measurement": "CDI, lipid peroxidation", "setting": "[25]", "value": "< 0.06"}]}
